Test results from patent publication US20220306695A1, “COMPSTATIN ANALOGUES AND THEIR MEDICAL USES” (priority 2019, published 2022).
Starred links: 1 amine or outer side, 2 acyl side, 3 side chain; linkers in the order of their positions; H or OH if unused. Positions of bridges follow the written chain, without caps; N, C: chain ends. Non-standard residues stand in square brackets, D forms with d. Residues, ends and D or L forms follow the SMILES beside them. Groups on a side chain read outwards from the residue. *: point of attachment. C20 diacid = O=C(O)CCCCCCCCCCCCCCCCCCC(=O)*; Trp(1-Me) = Cn1cc(C[C@H](N)C(=O)O)c2ccccc21; C18 diacid = O=C(O)CCCCCCCCCCCCCCCCC(=O)*; C16 diacid = O=C(O)CCCCCCCCCCCCCCC(=O)*; γGlu = O=C(O)[C@H](CCC(=O)[*:2])N[*:1]; AEEA = NCCOCCOCC(=O)O; Sar = CNCC(=O)O

Assays:
[1] = system: classical complement pathway; experiment: In vitro haemolysis assay (inhibition of classical complement pathway); type: cell-based, human; conditions: Table 3; human serum, sensitized sheep red blood cells; read-out: IC50[nM], in vitro analysis of inhibition of hemolysis
How it was run: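 Serially diluted compound (9 points) was preincubated 15 min at room temperature with diluted human serum, titrated per batch to give 70-90% maximal haemolysis, in Tris/casein buffer pH 7.4 with Mg2+/Ca2+. Antibody-sensitized sheep erythrocytes were then added for 30 min at 37° C, and the reaction was stopped with EDTA. Haemolysis was read at A405, with IC50 from 4PL fit.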

[2] = Solubility test at 10 mg/mL (visual inspection and light scattering); type: physicochemical; conditions: for Solubility, Condition 1 Acetate pH 4: 10 mg/mL compound in 100 mM acetate pH 4; for Solubility, Condition 2 Acetate pH 5: 10 mg/mL compound in 100 mM acetate pH 5; for Solubility, Condition 3 Phosphate pH 6: 10 mg/mL compound in 100 mM phosphate pH 6; for Solubility, Condition 4 Phosphate pH 7: 10 mg/mL compound in 100 mM phosphate pH 7; for Solubility, Condition 5 Phosphate pH 7.5: 10 mg/mL compound in 100 mM phosphate pH 7.5
Human C3 = Human C3 (human, UniProt P01024 23-1663); experiment: cell-based or functional assay
Human C3, sequence (P01024 23-1663 limits assumed): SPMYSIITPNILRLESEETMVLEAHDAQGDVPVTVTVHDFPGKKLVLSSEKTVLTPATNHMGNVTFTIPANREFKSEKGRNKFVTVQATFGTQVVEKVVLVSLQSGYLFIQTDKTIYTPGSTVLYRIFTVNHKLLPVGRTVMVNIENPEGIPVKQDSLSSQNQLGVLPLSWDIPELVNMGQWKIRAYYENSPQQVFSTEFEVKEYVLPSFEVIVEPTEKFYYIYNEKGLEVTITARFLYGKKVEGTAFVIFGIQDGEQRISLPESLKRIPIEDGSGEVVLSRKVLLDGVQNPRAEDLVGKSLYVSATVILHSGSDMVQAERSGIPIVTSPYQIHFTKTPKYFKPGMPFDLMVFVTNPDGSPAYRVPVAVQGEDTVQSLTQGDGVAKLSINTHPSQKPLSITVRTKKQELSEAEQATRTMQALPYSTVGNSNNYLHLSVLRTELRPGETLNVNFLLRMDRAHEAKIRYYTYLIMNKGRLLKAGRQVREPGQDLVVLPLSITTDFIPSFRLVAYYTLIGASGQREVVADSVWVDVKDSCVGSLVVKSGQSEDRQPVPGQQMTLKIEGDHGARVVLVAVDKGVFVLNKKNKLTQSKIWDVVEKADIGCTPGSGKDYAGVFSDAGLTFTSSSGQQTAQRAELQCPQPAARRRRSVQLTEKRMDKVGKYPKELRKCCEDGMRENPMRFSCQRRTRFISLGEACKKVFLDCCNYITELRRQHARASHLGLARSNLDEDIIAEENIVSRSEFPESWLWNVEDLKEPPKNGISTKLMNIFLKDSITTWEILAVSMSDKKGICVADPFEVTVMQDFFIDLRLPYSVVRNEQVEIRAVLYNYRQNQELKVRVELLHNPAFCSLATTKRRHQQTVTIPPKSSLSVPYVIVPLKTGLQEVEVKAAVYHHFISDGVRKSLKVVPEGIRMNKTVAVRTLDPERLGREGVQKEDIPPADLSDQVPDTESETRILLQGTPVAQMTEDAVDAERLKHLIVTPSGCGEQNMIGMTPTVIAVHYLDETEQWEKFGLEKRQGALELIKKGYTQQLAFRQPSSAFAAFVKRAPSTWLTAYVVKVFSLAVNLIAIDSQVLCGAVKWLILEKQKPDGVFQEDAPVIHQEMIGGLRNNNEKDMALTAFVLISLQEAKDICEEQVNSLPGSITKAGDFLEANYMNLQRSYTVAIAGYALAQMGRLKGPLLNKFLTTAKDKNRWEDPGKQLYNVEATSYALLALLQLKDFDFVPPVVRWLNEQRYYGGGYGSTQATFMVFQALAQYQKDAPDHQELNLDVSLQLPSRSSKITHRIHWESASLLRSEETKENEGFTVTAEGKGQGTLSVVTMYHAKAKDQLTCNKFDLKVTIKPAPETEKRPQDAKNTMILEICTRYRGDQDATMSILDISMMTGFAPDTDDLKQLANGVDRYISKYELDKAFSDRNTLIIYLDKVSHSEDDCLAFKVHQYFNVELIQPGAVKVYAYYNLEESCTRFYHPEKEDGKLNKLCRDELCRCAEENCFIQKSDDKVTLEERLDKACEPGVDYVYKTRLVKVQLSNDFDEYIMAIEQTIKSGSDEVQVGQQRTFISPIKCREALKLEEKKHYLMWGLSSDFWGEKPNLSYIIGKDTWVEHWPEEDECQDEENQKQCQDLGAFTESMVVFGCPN

For `CC[C@H](C)[C@@H]1NC(=O)[C@@H](NC(=O)[C@H](Cc2ccc(O)cc2)NC(=O)[C@H](CCC(=O)O)NC(=O)[C@H](CO)NC(C)=O)CSSC[C@@H](C(=O)N(C)CC(=O)N[C@@H](CCC(=O)O)C(=O)NCC(=O)N[C@@H](CCC(=O)O)C(=O)N[C@@H](CCCCNC(=O)CC[C@H](NC(=O)CNC(=O)CC[C@H](NC(=O)CCCCCCCCCCCCCCCCC(=O)O)C(=O)O)C(=O)O)C(N)=O)NC(=O)[C@H](CCCNC(=N)N)NC(=O)[C@H](Cc2c[nH]cn2)NC(=O)[C@H](CCC(=O)O)NC(=O)CNC(=O)[C@H](Cc2c[nH]c3ccccc23)NC(=O)[C@H](CC(=O)O)NC(=O)[C@H](CCC(N)=O)NC(=O)[C@H](Cc2cn(C)c3ccccc23)NC1=O` [Compound 114] (Ac-SEYCI[Trp(1-Me)]QDWGEHRC[Sar]EGEK([γGlu-Gly-γGlu-C18 diacid])-NH2; disulfide 4-14), the IC50 [1] was under 500 nM, the “Solubility, Condition 1 Acetate pH 4” value [2] was “+ (denotes solubility at the given condition, as determined by UV absorbance being less than 0.1 AU at 340 nm and the sample being clear when manually inspected.)” and the “Solubility, Condition 2 Acetate pH 5” value [2] was “+ (denotes solubility at the given condition, as determined by UV absorbance being less than 0.1 AU at 340 nm and the sample being clear when manually inspected.)”. The “Solubility, Condition 3 Phosphate pH 6” value [2] was “+ (denotes solubility at the given condition, as determined by UV absorbance being less than 0.1 AU at 340 nm and the sample being clear when manually inspected.)”, the “Solubility, Condition 4 Phosphate pH 7” value [2] was “+ (denotes solubility at the given condition, as determined by UV absorbance being less than 0.1 AU at 340 nm and the sample being clear when manually inspected.)” and the “Solubility, Condition 5 Phosphate pH 7.5” value [2] was “+ (denotes solubility at the given condition, as determined by UV absorbance being less than 0.1 AU at 340 nm and the sample being clear when manually inspected.)”.

In the case of `CC[C@H](C)[C@@H]1NC(=O)[C@@H](NC(=O)[C@H](Cc2ccc(O)cc2)NC(=O)[C@H](CCC(=O)O)NC(=O)[C@H](CO)NC(C)=O)CSSC[C@@H](C(=O)N(C)CC(=O)N[C@@H](CCC(=O)O)C(=O)NCC(=O)N[C@@H](CCCCN)C(=O)N[C@@H](CCCCNC(=O)CC[C@H](NC(=O)CNC(=O)CC[C@H](NC(=O)CCCCCCCCCCCCCCCCC(=O)O)C(=O)O)C(=O)O)C(N)=O)NC(=O)[C@H](CCCNC(=N)N)NC(=O)[C@H](Cc2c[nH]cn2)NC(=O)[C@H](CCC(=O)O)NC(=O)CNC(=O)[C@H](Cc2c[nH]c3ccccc23)NC(=O)[C@H](CC(=O)O)NC(=O)[C@H](CCC(N)=O)NC(=O)[C@H](Cc2cn(C)c3ccccc23)NC1=O` [Compound 115] (Ac-SEYCI[Trp(1-Me)]QDWGEHRC[Sar]EGKK([γGlu-Gly-γGlu-C18 diacid])-NH2; disulfide 4-14), the IC50 [1] is reported as under 250 nM, the “Solubility, Condition 1 Acetate pH 4” value [2] is reported as “− (denotes lack of solubility at the given condition, as UV absorbance at 340 nm exceeds 0.1 AU and/or it is visibly turbid or contains particles.)” and the “Solubility, Condition 2 Acetate pH 5” value [2] is reported as “− (denotes lack of solubility at the given condition, as UV absorbance at 340 nm exceeds 0.1 AU and/or it is visibly turbid or contains particles.)”. The “Solubility, Condition 3 Phosphate pH 6” value [2] was “+ (denotes solubility at the given condition, as determined by UV absorbance being less than 0.1 AU at 340 nm and the sample being clear when manually inspected.)”, the “Solubility, Condition 4 Phosphate pH 7” value [2] was “+ (denotes solubility at the given condition, as determined by UV absorbance being less than 0.1 AU at 340 nm and the sample being clear when manually inspected.)” and the “Solubility, Condition 5 Phosphate pH 7.5” value [2] was “+ (denotes solubility at the given condition, as determined by UV absorbance being less than 0.1 AU at 340 nm and the sample being clear when manually inspected.)”.

B1: Compound 5 (peptide)
peptide: Ac-ICIWQDWGKHRCT-NH2
modifications: disulfide 2-12
SMILES: CC[C@H](C)[C@H](NC(C)=O)C(=O)N[C@H]1CSSC[C@@H](C(=O)N[C@H](C(N)=O)[C@@H](C)O)NC(=O)[C@H](CCCNC(=N)N)NC(=O)[C@H](Cc2c[nH]cn2)NC(=O)[C@H](CCCCN)NC(=O)CNC(=O)[C@H](Cc2c[nH]c3ccccc23)NC(=O)[C@H](CC(=O)O)NC(=O)[C@H](CCC(N)=O)NC(=O)[C@H](Cc2c[nH]c3ccccc23)NC(=O)[C@H]([C@@H](C)CC)NC1=O
For B1, the “IC50[nM], inhibition of hemolysis” value (Human C3) was under 250 nM.

B2: Compound 98 (peptide)
peptide: Ac-ICIWQDWGEHRCTEGK([AEEA-AEEA-γGlu-C20 diacid])-NH2
modifications: disulfide 2-12
SMILES: CC[C@H](C)[C@H](NC(C)=O)C(=O)N[C@H]1CSSC[C@@H](C(=O)N[C@H](C(=O)N[C@@H](CCC(=O)O)C(=O)NCC(=O)N[C@@H](CCCCNC(=O)COCCOCCNC(=O)COCCOCCNC(=O)CC[C@H](NC(=O)CCCCCCCCCCCCCCCCCCC(=O)O)C(=O)O)C(N)=O)[C@@H](C)O)NC(=O)[C@H](CCCNC(=N)N)NC(=O)[C@H](Cc2c[nH]cn2)NC(=O)[C@H](CCC(=O)O)NC(=O)CNC(=O)[C@H](Cc2c[nH]c3ccccc23)NC(=O)[C@H](CC(=O)O)NC(=O)[C@H](CCC(N)=O)NC(=O)[C@H](Cc2c[nH]c3ccccc23)NC(=O)[C@H]([C@@H](C)CC)NC1=O
For B2, the “IC50[nM], inhibition of hemolysis” value (Human C3) was under 500 nM.

B3: Compound 97 (peptide)
peptide: Ac-ICIWQDWGEHRCTEGEK([AEEA-AEEA-γGlu-C18 diacid])-NH2
modifications: disulfide 2-12
SMILES: CC[C@H](C)[C@H](NC(C)=O)C(=O)N[C@H]1CSSC[C@@H](C(=O)N[C@H](C(=O)N[C@@H](CCC(=O)O)C(=O)NCC(=O)N[C@@H](CCC(=O)O)C(=O)N[C@@H](CCCCNC(=O)COCCOCCNC(=O)COCCOCCNC(=O)CC[C@H](NC(=O)CCCCCCCCCCCCCCCCC(=O)O)C(=O)O)C(N)=O)[C@@H](C)O)NC(=O)[C@H](CCCNC(=N)N)NC(=O)[C@H](Cc2c[nH]cn2)NC(=O)[C@H](CCC(=O)O)NC(=O)CNC(=O)[C@H](Cc2c[nH]c3ccccc23)NC(=O)[C@H](CC(=O)O)NC(=O)[C@H](CCC(N)=O)NC(=O)[C@H](Cc2c[nH]c3ccccc23)NC(=O)[C@H]([C@@H](C)CC)NC1=O
With B3 the “IC50[nM], inhibition of hemolysis” value (Human C3) was under 250 nM.

With {15‑Carboxy‑pentadecanoyl}-ESSAICIWQDWGEHRCTEGE-NH2 (disulfide 6-16) [Compound 99] the “IC50[nM], inhibition of hemolysis” value (Human C3) was under 250 nM.

B4: Compound 94 (peptide)
peptide: Ac-ICIWQDWGEHRCTEGEK([AEEA-AEEA-γGlu-C16 diacid])-NH2
modifications: disulfide 2-12
SMILES: CC[C@H](C)[C@H](NC(C)=O)C(=O)N[C@H]1CSSC[C@@H](C(=O)N[C@H](C(=O)N[C@@H](CCC(=O)O)C(=O)NCC(=O)N[C@@H](CCC(=O)O)C(=O)N[C@@H](CCCCNC(=O)COCCOCCNC(=O)COCCOCCNC(=O)CC[C@H](NC(=O)CCCCCCCCCCCCCCC(=O)O)C(=O)O)C(N)=O)[C@@H](C)O)NC(=O)[C@H](CCCNC(=N)N)NC(=O)[C@H](Cc2c[nH]cn2)NC(=O)[C@H](CCC(=O)O)NC(=O)CNC(=O)[C@H](Cc2c[nH]c3ccccc23)NC(=O)[C@H](CC(=O)O)NC(=O)[C@H](CCC(N)=O)NC(=O)[C@H](Cc2c[nH]c3ccccc23)NC(=O)[C@H]([C@@H](C)CC)NC1=O
With B4 the “IC50[nM], inhibition of hemolysis” value (Human C3) was under 500 nM.

B5: Compound 96 (peptide)
peptide: Ac-ICIWQDWGEHRCTEGK([AEEA-AEEA-γGlu-C18 diacid])-NH2
modifications: disulfide 2-12
SMILES: CC[C@H](C)[C@H](NC(C)=O)C(=O)N[C@H]1CSSC[C@@H](C(=O)N[C@H](C(=O)N[C@@H](CCC(=O)O)C(=O)NCC(=O)N[C@@H](CCCCNC(=O)COCCOCCNC(=O)COCCOCCNC(=O)CC[C@H](NC(=O)CCCCCCCCCCCCCCCCC(=O)O)C(=O)O)C(N)=O)[C@@H](C)O)NC(=O)[C@H](CCCNC(=N)N)NC(=O)[C@H](Cc2c[nH]cn2)NC(=O)[C@H](CCC(=O)O)NC(=O)CNC(=O)[C@H](Cc2c[nH]c3ccccc23)NC(=O)[C@H](CC(=O)O)NC(=O)[C@H](CCC(N)=O)NC(=O)[C@H](Cc2c[nH]c3ccccc23)NC(=O)[C@H]([C@@H](C)CC)NC1=O
For B5, the “IC50[nM], inhibition of hemolysis” value (Human C3) was under 1000 nM.

B6: Compound 4 (peptide)
peptide: Ac-ICI[Trp(1-Me)]QDWGEHRCT-NH2
modifications: disulfide 2-12
SMILES: CC[C@H](C)[C@H](NC(C)=O)C(=O)N[C@H]1CSSC[C@@H](C(=O)N[C@H](C(N)=O)[C@@H](C)O)NC(=O)[C@H](CCCNC(=N)N)NC(=O)[C@H](Cc2c[nH]cn2)NC(=O)[C@H](CCC(=O)O)NC(=O)CNC(=O)[C@H](Cc2c[nH]c3ccccc23)NC(=O)[C@H](CC(=O)O)NC(=O)[C@H](CCC(N)=O)NC(=O)[C@H](Cc2cn(C)c3ccccc23)NC(=O)[C@H]([C@@H](C)CC)NC1=O
With B6 the “IC50[nM], inhibition of hemolysis” value (Human C3) was under 100 nM.

B7: Compound 95 (peptide)
peptide: ICIWQDWGEHRCTEGK
modifications: N-acetyl; C-terminal amide; disulfide C2-C12; K16 side chain bears (15-carboxy-pentadecanoyl)-[(Piperazine-1-yl)-acetyl][Peg3][Peg3]
For B7, the “IC50[nM], inhibition of hemolysis” value (Human C3) was under 500 nM.

B8: Compound 101 (peptide)
peptide: Ac-EGSAICIWQDWGEHRCTEGK([γGlu-C16 diacid])-NH2
modifications: disulfide 6-16
SMILES: CC[C@H](C)[C@H](NC(=O)[C@H](C)NC(=O)[C@H](CO)NC(=O)CNC(=O)[C@H](CCC(=O)O)NC(C)=O)C(=O)N[C@H]1CSSC[C@@H](C(=O)N[C@H](C(=O)N[C@@H](CCC(=O)O)C(=O)NCC(=O)N[C@@H](CCCCNC(=O)CC[C@H](NC(=O)CCCCCCCCCCCCCCC(=O)O)C(=O)O)C(N)=O)[C@@H](C)O)NC(=O)[C@H](CCCNC(=N)N)NC(=O)[C@H](Cc2c[nH]cn2)NC(=O)[C@H](CCC(=O)O)NC(=O)CNC(=O)[C@H](Cc2c[nH]c3ccccc23)NC(=O)[C@H](CC(=O)O)NC(=O)[C@H](CCC(N)=O)NC(=O)[C@H](Cc2c[nH]c3ccccc23)NC(=O)[C@H]([C@@H](C)CC)NC1=O
With B8 the “IC50[nM], inhibition of hemolysis” value (Human C3) was under 500 nM.
